Experimental findings from ChEMBL document CHEMBL5370659 (J Med Chem, 2023) are described below.

The target in one data set is T1, Cytochrome P450 1A2 (Homo sapiens, UniProt P05177).
T1 sequence (P05177 whole entry): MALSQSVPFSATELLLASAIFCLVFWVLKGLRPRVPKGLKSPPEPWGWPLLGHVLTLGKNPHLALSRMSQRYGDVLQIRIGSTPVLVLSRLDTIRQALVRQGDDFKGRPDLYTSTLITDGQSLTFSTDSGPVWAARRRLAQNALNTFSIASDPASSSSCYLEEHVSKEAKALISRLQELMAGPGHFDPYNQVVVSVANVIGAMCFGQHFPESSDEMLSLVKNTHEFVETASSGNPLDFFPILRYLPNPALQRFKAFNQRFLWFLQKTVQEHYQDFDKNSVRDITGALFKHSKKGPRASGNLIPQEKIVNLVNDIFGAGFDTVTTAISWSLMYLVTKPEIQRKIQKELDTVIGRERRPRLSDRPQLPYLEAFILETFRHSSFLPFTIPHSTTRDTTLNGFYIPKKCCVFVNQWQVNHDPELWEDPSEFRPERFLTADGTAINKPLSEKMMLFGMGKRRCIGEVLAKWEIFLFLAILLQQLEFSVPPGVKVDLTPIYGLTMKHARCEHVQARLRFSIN
The data set can be described thus: Inhibition of CYP1A2 in human liver microsome using phenacetin as substrate measured upto 50 uM incubated for 10 mins followed by NADPH addition incubated for 10 mins by LC/MS/MS analysis. The format is ADME. As to conditions: microsomes, 20 min.

Data set [1] addresses Large neutral amino acids transporter small subunit 1 (Homo sapiens, UniProt Q01650). In words: Inhibition of human LAT1 transfected in MDCK-II cells co-transfected with 4F2HC or GFP using [3H]-leucine as probe substrate at 20 uM incubated for 10 mins by scintillation counting analysis. Type of data set: cell-based.
Data set [2] relates to Mus musculus. The data set can be described thus: Effect on hedonic component behavior in C57BL/6N mouse at 50 mg/kg, po treated for 14 days by sucrose preference test. Type of data set: functional, organism-based. Particulars: time 14.0 day.
Data set [3] in a line: Drug uptake in Sprague-Dawley rat brain at 20 mg/kg, po measured at 2 hrs by LC-MS/MS analysis. Type of data set: ADME, organism-based. Particulars: in vivo, BLD = below limit of detection.
A short description of data set [4]: AUCExtra in Sprague-Dawley rat at 10 mg/kg, iv measured upto 1440 mins by LC-MS/MS analysis. The format is ADME, organism-based. Particulars: in vivo, 24 h.
The target of data set [5] is T2, Tryptophan 5-hydroxylase 2 (Homo sapiens, UniProt Q8IWU9).
T2 sequence (Q8IWU9 whole entry): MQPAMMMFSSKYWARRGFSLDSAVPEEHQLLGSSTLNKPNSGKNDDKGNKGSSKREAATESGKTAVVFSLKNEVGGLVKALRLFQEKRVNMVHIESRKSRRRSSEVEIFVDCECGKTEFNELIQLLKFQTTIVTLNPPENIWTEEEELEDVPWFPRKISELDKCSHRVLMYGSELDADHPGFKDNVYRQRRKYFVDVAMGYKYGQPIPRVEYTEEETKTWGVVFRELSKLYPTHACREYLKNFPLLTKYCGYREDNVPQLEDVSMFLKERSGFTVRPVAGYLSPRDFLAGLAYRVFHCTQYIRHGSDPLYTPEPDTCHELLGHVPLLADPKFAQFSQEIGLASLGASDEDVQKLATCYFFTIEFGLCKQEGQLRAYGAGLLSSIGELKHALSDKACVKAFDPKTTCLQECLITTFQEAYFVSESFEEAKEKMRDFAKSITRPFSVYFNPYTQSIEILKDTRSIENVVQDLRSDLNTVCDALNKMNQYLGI
In words: Inhibition of recombinant MBP-tagged full length human THP2 using L-Trp as substrate assessed as formation of 5-HTP by measuring fluorescent property.

The nature of data set [6]: Half life in Sprague-Dawley rat at 10 mg/kg, iv measured upto 1440 mins by LC-MS/MS analysis. The format is ADME, organism-based. Particulars: in vivo.
Data set [7] can be described thus: Tmax in Sprague-Dawley rat at 50 mg/kg, po measured upto 1440 mins by LC-MS/MS analysis. Type of data set: ADME, organism-based. As to conditions: in vivo.
Data set [8] is described as follows: Drug uptake in Sprague-Dawley rat lung at 20 mg/kg, po measured at 0.5 hrs by LC-MS/MS analysis. The format is ADME, organism-based. Particulars: read-out: Drug uptake.
Data set [9] is described as follows: MRT (0 to last) in CD-1 (ICR) mouse at 50 mg/kg, po measured upto 1440 mins by LC-MS/MS analysis. Particulars: in vivo. Type of data set: ADME, organism-based.
For data set [10], the system named is Mus musculus. In words: Effect on time spent in central zone of C57BL/6N mouse at 100 mg/kg, po treated for 14 days by locomotor activity test. Type of data set: functional, organism-based. As to conditions: time 14.0 day.
Another data set has as its system MC-38. The data set can be described thus: Antitumor activity against mouse MC-38 cells subcutaneously transplanted in C57BL/6N mouse assessed as reduction in AUC of tumor growth at 50 mg/kg, po bid measured on day 20 relative to control. The format is functional. Particulars: MC-38, 480 h, route sc, time 20 day.
Data set [11] is described as follows: AUC (0 to infinitive) in CD-1 (ICR) mouse at 50 mg/kg, po measured upto 1440 mins by LC-MS/MS analysis. Type of data set: ADME, organism-based. Set-up: time < 1440 min, dose 50 mg/kg, route po. Particulars: in vivo.
The nature of data set [12]: Metabolic stability in human hepatocytes assessed as half life. Type of data set: ADME, cell-based, Hepatocyte.
In the next data set the target is Cytochrome P450 2C19 (Homo sapiens, UniProt P33261). The data set can be described thus: Inhibition of CYP2C19 in human liver microsome using S-mephenytoin as substrate measured upto 50 uM incubated for 10 mins followed by NADPH addition incubated for 10 mins by LC/MS/MS analysis. The format is ADME. Particulars: microsomes, 20 min. In general terms: Microsomes from liver hold many membrane-bound enzymes, among them those of drug oxidation.

Data set [13] can be described thus: Mutagenicity in Salmonella typhimurium TA98 in presence or absence of rat liver S9 fraction by Ames test. As to conditions: salmonella enterica subsp. enterica serovar typhimurium. Type of data set: toxicity.
A short description of data set [14]: Aqueous solubility of the compound in pH 7.4 PBS buffer by HPLC-UV analysis. Type of data set: physicochemical.
A short description of data set [15]: Drug uptake in Sprague-Dawley rat lung at 20 mg/kg, po measured at 2 hrs by LC-MS/MS analysis. As to conditions: read-out: Drug uptake. Type of data set: ADME, organism-based.
The nature of data set [16]: Toxicity in C57BL/6N mouse assessed as general toxic effects at 1.5 to 15 mg/kg, po bid treated for 7 days. Type of data set: organism-based. As to conditions: in vivo, 168 h, dose 1.5-15 mg/kg, time 7 day.
Data set [17] is described as follows: Drug uptake in CD-1 (ICR) mouse lung at 50 mg/kg measured 0.5 hrs by LC-MS/MS analysis. Type of data set: ADME, organism-based. As to conditions: read-out: Drug uptake.
Data set [18] is described as follows: Toxicity in C57BL/6N mouse subcutaneously transplanted with mouse MC-38 cells assessed as body weight change at 50 mg/kg, po bid measured on day 20. The format is organism-based. Particulars: in vivo, sc, 480 h, time 20 day.
Data set [19] can be described thus: Plasma concentration in CD-1 (ICR) mouse at 50 mg/kg measured 0.5 hrs by LC-MS/MS analysis. Type of data set: ADME, organism-based.
The nature of data set [20]: AUCExtra in Sprague-Dawley rat at 20 mg/kg, po measured upto 1440 mins by LC-MS/MS analysis. The format is ADME, organism-based. As to conditions: in vivo, 24 h.
The nature of data set [21]: Drug uptake in CD-1 (ICR) mouse brain at 50 mg/kg measured 2 hrs by LC-MS/MS analysis. The format is ADME, organism-based. As to conditions: read-out: Drug uptake.

Values after ≈ are worked out from the molar mass of the structure shown. Active and inactive are the calls of the source. Some results are limits rather than exact numbers.

Cytochrome P450 2C19, sequence (P33261 whole entry): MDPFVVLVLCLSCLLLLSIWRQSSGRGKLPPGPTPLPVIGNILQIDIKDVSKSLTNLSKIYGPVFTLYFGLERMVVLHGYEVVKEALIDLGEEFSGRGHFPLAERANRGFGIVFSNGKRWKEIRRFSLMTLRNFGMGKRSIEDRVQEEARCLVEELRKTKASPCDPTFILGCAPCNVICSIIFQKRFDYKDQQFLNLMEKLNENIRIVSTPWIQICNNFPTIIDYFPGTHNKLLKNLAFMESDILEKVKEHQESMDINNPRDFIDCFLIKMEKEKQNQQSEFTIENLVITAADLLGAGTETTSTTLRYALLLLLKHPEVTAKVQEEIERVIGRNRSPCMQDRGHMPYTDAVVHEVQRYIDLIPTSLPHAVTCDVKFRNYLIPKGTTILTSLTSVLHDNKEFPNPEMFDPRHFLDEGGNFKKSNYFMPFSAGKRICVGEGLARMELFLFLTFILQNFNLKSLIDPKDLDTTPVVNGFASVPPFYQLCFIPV
Large neutral amino acids transporter small subunit 1, sequence (Q01650 whole entry): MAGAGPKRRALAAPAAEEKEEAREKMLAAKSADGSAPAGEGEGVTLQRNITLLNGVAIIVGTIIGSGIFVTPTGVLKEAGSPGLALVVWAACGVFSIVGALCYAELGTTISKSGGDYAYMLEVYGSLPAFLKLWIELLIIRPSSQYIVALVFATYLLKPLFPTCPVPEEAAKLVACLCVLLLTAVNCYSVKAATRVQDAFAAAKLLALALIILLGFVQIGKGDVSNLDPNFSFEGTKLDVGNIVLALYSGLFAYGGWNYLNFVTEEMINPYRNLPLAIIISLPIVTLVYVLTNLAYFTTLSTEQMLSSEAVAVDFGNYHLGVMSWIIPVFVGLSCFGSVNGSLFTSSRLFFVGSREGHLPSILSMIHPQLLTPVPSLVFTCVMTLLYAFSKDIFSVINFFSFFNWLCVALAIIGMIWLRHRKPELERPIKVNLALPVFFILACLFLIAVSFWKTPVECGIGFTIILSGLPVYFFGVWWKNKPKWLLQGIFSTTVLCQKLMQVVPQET

Take `CCn1c(=O)[nH]c(=O)c2c1nc(Cc1cn3cc(C)sc3n1)n2CC1COC1`: the “inhibition (INH)” value (against Cytochrome P450 1A2; in data set [1]; at Cytochrome P450 2C19) was “Not Active” each time. In addition, the outcome in the data set with Mus musculus [2] and in the data set on Mus musculus [10] was inactive. Moreover, the Drug uptake entry in data set [3] was “Bld”. For the same compound, the “%AUCextra” value in data set [4] is 0.46%; in [20], 0.84%. In [5], the IC50 (commonly the point on the concentration scale where inhibition reaches its midpoint) came to 0.016 µM. Besides, the half-life (as a rule, the time needed for the level to fall by half in the phase considered) in [6] is 3.39 h; in data set [12], > 2.42 h. In [7], the time of peak concentration (Tmax) – broadly, the time at which the peak concentration occurs – was found to be 0.83 h. The figures for the concentration at 0.5 h in [8], in data set [17] and in data set [19] were 482 ng/g, 1720 ng/g and 7390 ng/mL, respectively. For the same compound, the MRT last – broadly, a mean duration of stay, worked out from the concentration-time curve – at 24 h in data set [9] was determined as 1.58 h. In addition, in the data set with MC-38, the inhibition in vivo (usually the drop in the measured response relative to a control, in per cent) at 50 mg/kg came out at 35%. Besides, the AUC(0-inf) (commonly the area under the concentration-time curve extrapolated to infinity) in data set [11] stood at 8580 ng·h/mL. For the same compound, the Activity result in data set [13], in [16] and in data set [18] was “Non-Toxic” throughout. The amount in solution in data set [14] (solubility) came to 189 µM (≈ 75.7 µg/mL). Also, the figures for the concentration at 2 h in data set [15] and in data set [21] were 76 ng/g and 46 ng/g, respectively.
